Where a name gives a salt, the structure may show the parent alone. Read-outs that look alike come from different tables or passages of the source.
Assay: In Vitro Cyclization Assay (disappearance of test compound in buffer, half-life of degradation)
Type: physicochemical
Conditions: 20° C., approximately 2.2 mM, read-out: Ave (half-life of degradation) (converted)
Procedure: 1. In Vitro Cyclization Assay
This assay measures the ability of a test compound of the present invention to cyclize in vitro. Also determined is the time required to effect such cyclization.
Test compounds are dissolved (approximately 2.2 mM) in 50 mM phosphate/citrate buffers at a variety of pHs, including pH 7.4 and pH 8.5. The disappearance of the test compounds is observed over time by incubating the solutions at 20° C. and periodically quantifying the concentration of the remaining compound. Since the rate of disappearance follows first order kinetics, the half-life of degradation is calculated from the slope of the regression of natural logarithm transformed data on time. For pH 10 half-life results, CPBG is used: The half-life assay is conducted in phosphate/citrate buffer to test compound stability at pH 6, pH 7.4 and pH 8.5, but citrate/phosphate/glycine buffer is used when compounds were tested at pH 10.

[1] = nominal pH 6, 50 mM phosphate/citrate buffer
[2] = nominal pH 7.4, 50 mM phosphate/citrate buffer
[3] = nominal pH 8.5, 50 mM phosphate/citrate buffer
[4] = nominal pH 10, citrate/phosphate/glycine buffer

Which half-life at 2.2 mM [1] does the source give for CN(CC(F)(F)CN)C(=O)Oc1ccc2c3c1OC1C(=O)CCC4C(C2)N(C)CCC314 (stereo not drawn) [Example 1, Hydromorphone 3-(N-methyl-N-(3-amino-2,2-difluoro)propyl)carbamate Hydrochloride] here?
Its half-life at 2.2 mM is 99.1 h.

And the half-life at 2.2 mM [2]?
The half-life at 2.2 mM was 9.43 h.

And the half-life at 2.2 mM [3]?
Its half-life at 2.2 mM is 6.13 h.

What about the half-life at 2.2 mM [4] of the same molecule?
Its half-life at 2.2 mM is 8.04 h.

Which half-life at 2.2 mM [1] does the source give for CN(CC(F)CN)C(=O)Oc1ccc2c3c1O[C@H]1C(=O)CC[C@H]4[C@@H](C2)N(C)CC[C@]314 (stereo partly drawn) [Example 2, Hydromorphone 3-(N-methyl-N-(3-amino-2-fluoro)propyl)carbamate Hydrochloride] here?
The half-life at 2.2 mM was 334 h.

And the half-life at 2.2 mM [2]?
Its half-life at 2.2 mM is 18.1 h.

And the half-life at 2.2 mM [3]?
Its half-life at 2.2 mM is 5.18 h.

And the half-life at 2.2 mM [4]?
The half-life at 2.2 mM was 1.68 h.

Which half-life at 2.2 mM [1] does the source give for CN(CCCN)C(=O)Oc1ccc2c3c1O[C@H]1C(=O)CC[C@H]4[C@@H](C2)N(C)CC[C@]314 [Comparison, Hydromorphone 3-(N-methyl-N-(3-amino)propyl)carbamate Hydrochloride, reference compound] here?
Its half-life at 2.2 mM is 3190 h.

And the half-life at 2.2 mM [2]?
Its half-life at 2.2 mM is 224 h.

What about the half-life at 2.2 mM [3] of the same molecule?
Its half-life at 2.2 mM is 74 h.

What about the half-life at 2.2 mM [4] of the same molecule?
Its half-life at 2.2 mM is 1.33 h.

Reference: patent US9023860B2, “Pro-drugs for controlled release of biologically active compounds” (Signature Therapeutics, Inc., priority 2007, dated 2015)
